According to US12440471B2, “Compositions and methods for the treatment of bronchopulmonary dysplasia (BPD) and BPD-associated pulmonary hypertension” (AyuVis Research, Inc., priority 2021, dated 2025):

Experiments:
[1] = tested on: pre-term lamb BPD model; experiment: Pre-term lamb BPD model: respiratory severity score; type: in vivo
Source text: A unique PT lamb model, developed by Dr. Albertine (University of Utah), was used to emulate the clinical setting for PT human infants with respiratory failure related to premature birth before the lungs are mature enough to support extra-uterine life. Both the PT lamb model and PT human infants are whole-organism physiological beings that have the setting of PT birth and prolonged ventilation support with oxygen-rich gas because of respiratory failure related to lung structural and functional immaturity, including surfactant deficiency. Ventilation support with oxygen-rich gas is for days, weeks, months, and is associated with co-morbidities of the brain, liver, distal ileum, and kidney injury, and inadequate nutrition and poor postnatal growth. This PT lamb model for BPD continues to provide mechanistic insights during the evolution of BPD (Joss-Moore, Metcalfe et al. 2010), development of multiple-organ dysfunction (Albertine 2012, Abdullah, Seidel et al. 2016), and long-term structural and functional impairments (Dahl, Bowen et al. 2018).
A dose range-finding study was conducted with the goal of treating two PT lambs with either a vehicle control or low, mid, and high doses of AVR-48 (compound 8) by twice daily intravenous infusions during 6 to 7 days of mechanical ventilation, followed by transition to noninvasive respiratory support (NIS) for 3 days, for a total of 10 days of management of these PT lambs. Compound 8 was not given during the period of noninvasive respiratory support to assess short-term persistence of effect of compound 8. The PK and PD parameters for compound 8 were also determined.
The modified PT lamb model used 6 d to 7 d of mechanical ventilation for respiratory management to identify temporal pathogenesis of the disease. […]
A total 9 lambs were used for this study. […] The PK parameters were calculated following both non-Compartmental Pharmacokinetic Modeling and population Pharmacokinetic Modeling as described by Roberts et al previously (Roberts, Stockmann et al. 2016). […] The blood samples also were analyzed for hematology and liver enzymes. […]

[2] = tested on: pre-term lamb BPD model; experiment: Pre-term lamb BPD model: BAL fluid protein, VEGF, ICAM-1; type: in vivo; settings: for VEGF concentrations in BAL fluid: vs vehicle after 10 days
Description: A total 9 lambs were used for this study. One dose of Curosurf was given intratracheally to the PT lamb just after birth. Randomized doses of compound AVR-48 (8) (0, 0.1, 0.3, 1.0 and 3.0 mg/kg) were administered intravenously every 12 hr after the initial dose that will be given at 6 hr after delivery to n=2-4 lambs via slow intravenous injection. The beginning treatment at 6 hr post-delivery is selected to represent the human case where neonatologists attempt to allow an infant to breath without mechanical ventilation, if possible, and then begin invasive respiratory support as necessary. Whole blood was drawn from PT lambs at the time of delivery (“pre-dose”), immediately after dosing (IAD), at 15, 30, 45, and 60 min, and at 2, 4, 8, 12, 24, 48, 72, and 96 hr after the initial dose. Plasma extractions and bioanalysis of compound AVR-48 (8) were performed using a qualified bioanalysis method already developed by us. The PK parameters were calculated following both non-Compartmental Pharmacokinetic Modeling and population Pharmacokinetic Modeling as described by Roberts et al previously (Roberts, Stockmann et al. 2016). Blood was collected every 15 min for the first 90 min of postnatal life, followed by every 3 hours for 12 hours and then spaced at 1.5 d, 2.5 d, 3.5 d, 6.5 d, and 9.5 d for analysis of cytokines (Visconti, Senthamaraikannan et al. 2018) and VEGF levels (Albertine, Dahl et al. 2010). The blood samples also were analyzed for hematology and liver enzymes. After 6-7 d of mechanical ventilation, the lambs will be weaned from mechanical ventillation and weaned to non-invasive support for 3 d to ascertain longer-term outcome (Dahl, Bowen et al. 2018). Terminally, the PT lambs were euthanized after 10 days and their heart/lungs and brain were removed. Ex vivo BAL of the right cranial lobe (it has its own bronchus, pulmonary artery and vein) was done for similar analyses. Tracheal aspirates were collected according to the protocol for cytokines, BAL protein, ICAM-1 and VEGF. The spleen was collected to analyze immune cell population, using FACS.
Bronchoalveolar lavage fluid (BALF) Analysis. Pups were sacrificed on PN14, and the trachea was cannulated with a small-caliber needle by instilling PBS endotracheally at […] pressure for 15 minutes. Two volumes of 300 μL of cold 1×PBS were instilled, gently aspirated, and pooled. Samples were centrifuged at 1000×g for 10 minutes at 4° C. The supernatant was collected, and total protein was quantified using the Pierce™ BCA Protein Assay Kit (Fisher Scientific Co, Houston, TX). The total cell count was done using the TC20 cell counter (BioRad, Hercules, CA). Similar method was followed for analyzing the protein concentration in BAL fluid collected from preterm lambs.

[3] = vs vehicle treated lambs after 10 days

CC(=O)N[C@@H]1C(Oc2ccc([N+](=O)[O-])cc2)OC(CO)C(O)C1O (stereo partly shown) [AVR-48]
Respiratory Severity Score (RSS) ([1]; 3.0 mg/kg IV, n=4, lowest RSS): 2.4
Respiratory Severity Score (RSS) vs placebo ([1]; 1.0 and 3.0 mg/kg IV, 2/d, 7 days): Significant improvement
highest efficacious dose (RSS) ([1]; IV twice daily): 3.0 mg/kg
VEGF concentrations in BAL fluid ([2]; high dose (3.0 mg/kg)): no effect
VEGF concentrations in BAL fluid ([2]; low doses): increase
ICAM-1 concentrations in BAL fluid [2, 3]: increase
total protein concentration in BAL fluid [2, 3]: decreased
